{"source": "patent US20110082162A1", "about": "“SYNERGISTIC FUNGICIDAL COMPOSITION CONTAINING 5-FLUOROCYTOSINE FOR FUNGAL CONTROL IN CEREALS” (DOW AGROSCIENCES LLC, priority 2009, published 2011)", "key": {"[1]": {"system": "Septoria tritici (SEPTTR; Mycosphaerella graminicola)", "assay": "3-day curative (3DC) test vs. leaf blotch of wheat, inoculation 3 days before fungicide treatment", "type": "in vivo, Septoria tritici on wheat plants (variety Yuma)", "conditions": "Zymoseptoria tritici, read-out: % DC Obs (percent disease control observed); for pest or weed control at 1.8 ppm: applied alone at 1.8 ppm; for pest or weed control at 0.6 ppm: applied alone at 0.6 ppm", "protocol": "(§1) Evaluation of Curative and Protectant Activity of Fungicide Mixtures vs. Leaf Blotch of Wheat (Mycosphaerella graminicola; anamorph: Septoria tritici; Bayer code: SEPTTR)\n(§2) Wheat plants (variety Yuma) were grown from seed in a greenhouse in plastic pots with a surface area of 27.5 square centimeters (cm2) containing 50% mineral soil/50% soil-less Metro mix, with 8-12 seedlings per pot. The plants were employed for testing when the first leaf was fully emerged, which typically took 7 to 8 days after planting. Test plants were inoculated with an aqueous spore suspension of Septoria tritici either 3 days prior to (3-day curative test; 3DC) or 1 day after fungicide treatments (1-day protectant test; 1DP). After inoculation the plants were kept at 100% relative humidity (one day in a dark dew chamber followed by two days in a lighted mist chamber) to permit spores to germinate and infect the leaf. The plants were then transferred to a greenhouse until disease symptoms were fully expressed.\n(§3) Treatments consisted of fungicides, including a compound of Formula I, epoxiconazole, prothioconazole, azoxystrobin, pyraclostrobin, penthiopyrad, isopyrazam, bixafen, boscalid, chlorothalonil and isobutyric acid (3S,6S,7R,8R)-8-benzyl-3-[(3-isobutyryloxymethoxy-4-methoxypyridine-2-carbonyl)-amino]-6-methyl-4,9-dioxo-[1,5]dioxonan-7-yl ester (compound A), applied either individually or as two-way mixtures with a compound of Formula I. 1% of water solution of a compound with Formula I was used in the tests. Technical grades of other materials were dissolved in acetone to make stock solutions, which were then used to perform three-fold dilutions in acetone either for each individual fungicide component or for the two-way mixtures. Desired fungicide rates were obtained after mixing dilutions with nine volumes of water containing 110 parts per million (ppm) Triton X-100. Ten milliliter (mL) fungicide solutions were applied onto six pots of plants using an automated booth sprayer, which utilized two 6218-1/4 JAUPM spray nozzles operating at 20 pounds per square inch (psi) set at opposing angles to cover both leaf surfaces. All sprayed plants were allowed to air dry prior to further handling. Control plants were sprayed in the same manner with the solvent blank.\n(§4) When disease reached 80 to 100% on the control plants, infection levels were assessed on treated plants visually and scored on a scale of 0 to 100 percent. Percentage of disease control was then calculated using the ratio of disease on treated plants relative to control plants.\n(§5) Colby's equation was used to determine the fungicidal effects expected from the mixtures. (See Colby, S. R. Calculation of the synergistic and antagonistic response of herbicide combinations. Weeds 1967, 15, 20-22.)\n(§6) The following equation was used to calculate the expected activity of mixtures containing two active ingredients, A and B:\n(§7) A=observed efficacy of active component A at the same concentration as used in the mixture;\n(§8) B=observed efficacy of active component B at the same concentration as used in the mixture."}, "[2]": {"system": "Septoria tritici (SEPTTR; Mycosphaerella graminicola)", "assay": "1-day protectant (1DP) test vs. leaf blotch of wheat, fungicide applied 1 day before inoculation", "type": "in vivo, Septoria tritici on wheat plants (variety Yuma)", "conditions": "Zymoseptoria tritici, read-out: % DC Obs (percent disease control observed)", "protocol": "as §1, §2, §3, §4, §5, §6, §7, §8"}, "[3]": {"conditions": "1DP SEPTTR, applied alone at 0.6 ppm"}, "[4]": {"conditions": "1DP SEPTTR, applied alone at 1.8 ppm"}}, "data": [{"smiles": "CC(C)C1C2CCC1c1c(NC(=O)c3cn(C)nc3C(F)F)cccc12", "note": "(stereo not drawn) [Isopyrazam, 3-(difluoromethyl)-1-methyl-N-[1,2,3,4-tetrahydro-9-(1-methylethyl)-1,4-methanonaphthalen-5-yl]-1H-pyrazole-4-carboxamide]", "values": [{"measurement": "pest or weed control at 0.06 ppm", "setting": "[1]", "value": 22, "unit": "%"}, {"measurement": "pest or weed control at 0.06 ppm", "setting": "[2]", "value": 5, "unit": "%"}, {"measurement": "pest or weed control at 0.2 ppm", "setting": "[2]", "value": 9, "unit": "%"}, {"measurement": "pest or weed control at 0.6 ppm", "setting": "[2]", "value": 19, "unit": "%"}]}, {"smiles": "Nc1nc(O)ncc1F", "note": "[Compound I, 5-FLUOROCYTOSINE]", "values": [{"measurement": "pest or weed control at 0.03 ppm", "setting": "[1]; 3DC SEPTTR, applied alone at 0.03 ppm", "value": 4, "unit": "%"}, {"measurement": "pest or weed control at 0.1 ppm", "setting": "[1]; 3DC SEPTTR, applied alone at 0.1 ppm", "value": 33, "unit": "%"}, {"measurement": "pest or weed control at 0.3 ppm", "setting": "[1]; 3DC SEPTTR, applied alone at 0.3 ppm", "value": 67, "unit": "%"}, {"measurement": "pest or weed control at 0.9 ppm", "setting": "[1]; 3DC SEPTTR, applied alone at 0.9 ppm", "value": 75, "unit": "%"}, {"measurement": "pest or weed control at 2.8 ppm", "setting": "[1]; 3DC SEPTTR, applied alone at 2.8 ppm", "value": 94, "unit": "%"}, {"measurement": "pest or weed control at 0.03 ppm", "setting": "[2]; 1DP SEPTTR, applied alone at 0.03 ppm", "value": 13, "unit": "%"}, {"measurement": "pest or weed control at 0.1 ppm", "setting": "[2]; 1DP SEPTTR, applied alone at 0.1 ppm", "value": 11, "unit": "%"}, {"measurement": "pest or weed control at 0.3 ppm", "setting": "[2]; 1DP SEPTTR, applied alone at 0.3 ppm", "value": 8, "unit": "%"}, {"measurement": "pest or weed control at 0.9 ppm", "setting": "[2]; 1DP SEPTTR, applied alone at 0.9 ppm", "value": 18, "unit": "%"}, {"measurement": "pest or weed control at 2.8 ppm", "setting": "[2]; 1DP SEPTTR, applied alone at 2.8 ppm", "value": 79, "unit": "%"}]}, {"smiles": "N#Cc1c(Cl)c(Cl)c(Cl)c(C#N)c1Cl", "note": "[Chlorothalonil, 2,4,5,6-tetrachloro-1,3-benzenedicarbonitrile]", "values": [{"measurement": "pest or weed control at 13.5 ppm", "setting": "[1]; 3DC SEPTTR, applied alone at 13.5 ppm", "value": 0, "unit": "%"}, {"measurement": "pest or weed control at 42 ppm", "setting": "[1]; 3DC SEPTTR, applied alone at 42 ppm", "value": 0, "unit": "%"}, {"measurement": "pest or weed control at 13.5 ppm", "setting": "[2]; 1DP SEPTTR, applied alone at 13.5 ppm", "value": 13, "unit": "%"}, {"measurement": "pest or weed control at 42 ppm", "setting": "[2]; 1DP SEPTTR, applied alone at 42 ppm", "value": 8, "unit": "%"}]}, {"smiles": "COc1ccnc(C(=O)N[C@H]2COC(=O)[C@H](Cc3ccccc3)[C@@H](OC(=O)C(C)C)[C@H](C)OC2=O)c1OCOC(=O)C(C)C", "note": "[Compound A, Isobutyric acid (3S,6S,7R,8R)-8-benzyl-3-[(3-isobutyryloxymethoxy-4-methoxy-pyridine-2-carbonyl)-amino]-6-methyl-4,9-dioxo-[1,5]dioxonan-7-yl ester]", "values": [{"measurement": "pest or weed control at 1.35 ppm", "setting": "[1]", "value": 6, "unit": "%"}]}, {"smiles": "Fc1ccc([C@]2(Cn3cncn3)O[C@H]2c2ccccc2Cl)cc1", "note": "(racemic) [Epoxiconazole, rel-1-[[(2R,3S)-3-(2-chlorophenyl)-2-(4-fluorophenyl)oxiranyl]methyl]-1H-1,2,4-triazole]", "values": [{"measurement": "pest or weed control at 0.0375 ppm", "setting": "[2]; 1DP SEPTTR, applied alone at 0.0375 ppm", "value": 15, "unit": "%"}, {"measurement": "pest or weed control at 0.125 ppm", "setting": "[2]; 1DP SEPTTR, applied alone at 0.125 ppm", "value": 27, "unit": "%"}]}, {"smiles": "CC(C)CC(C)c1sccc1NC(=O)c1cn(C)nc1C(F)(F)F", "note": "(stereo not drawn) [Penthiopyrad, N-[2-(1,3-dimethylbutyl)-3-thienyl]-1-methyl-3-(trifluoromethyl)-1H-pyrazole-4-carboxamide]", "values": [{"measurement": "pest or weed control at 1.8 ppm", "setting": "[1]; 3DC SEPTTR", "value": 24, "unit": "%"}, {"measurement": "pest or weed control at 0.6 ppm", "setting": "[2]; [3]", "value": 7, "unit": "%"}, {"measurement": "pest or weed control at 1.8 ppm", "setting": "[2]; [4]", "value": 30, "unit": "%"}]}, {"smiles": "OC(Cc1ccccc1Cl)(Cn1[nH]cnc1=S)C1(Cl)CC1", "note": "(stereo not drawn) [Prothioconazole, 2-[2-(1-chlorocyclopropyl)-3-(2-chlorophenyl)-2-hydroxypropyl]-1,2-dihydro-3H-1,2,4-triazole-3-thione]", "values": [{"measurement": "pest or weed control at 0.6 ppm", "setting": "[1]; 3DC SEPTTR", "value": 12, "unit": "%"}, {"measurement": "pest or weed control at 1.8 ppm", "setting": "[1]; 3DC SEPTTR", "value": 25, "unit": "%"}, {"measurement": "pest or weed control at 0.6 ppm", "setting": "[2]; [3]", "value": 18, "unit": "%"}, {"measurement": "pest or weed control at 1.8 ppm", "setting": "[2]; [4]", "value": 25, "unit": "%"}]}, {"smiles": "Cn1cc(C(=O)Nc2ccc(F)cc2-c2ccc(Cl)c(Cl)c2)c(C(F)F)n1", "note": "[Bixafen, N-(3′,4′-dichloro-5-fluoro[1,1′-biphenyl]-2-yl)-3-(difluoromethyl)-1-methyl-1H-pyrazole-4-carboxamide]", "values": [{"measurement": "pest or weed control at 0.6 ppm", "setting": "[2]", "value": 14, "unit": "%"}, {"measurement": "pest or weed control at 1.8 ppm", "setting": "[2]", "value": 71, "unit": "%"}]}, {"smiles": "O=C(Nc1ccccc1-c1ccc(Cl)cc1)c1cccnc1Cl", "note": "[Boscalid, 2-chloro-N-(4′-chloro[1,1′-biphenyl]-2-yl)-3-pyridinecarboxamide]", "values": [{"measurement": "pest or weed control at 1.8 ppm", "setting": "[1]; 3DC SEPTTR", "value": 8, "unit": "%"}, {"measurement": "pest or weed control at 1.8 ppm", "setting": "[2]; [4]", "value": 9, "unit": "%"}]}, {"smiles": "CO/C=C(/C(=O)OC)c1ccccc1Oc1cc(Oc2ccccc2C#N)ncn1", "note": "[Azoxystrobin, methyl (αE)-2-[[6-(2-cyanophenoxy)-4-pyrimidinyl]oxy]-α-(methoxymethylene)benzeneacetate]", "values": [{"measurement": "pest or weed control at 0.6 ppm", "setting": "[1]; 3DC SEPTTR", "value": 22, "unit": "%"}, {"measurement": "pest or weed control at 1.8 ppm", "setting": "[1]; 3DC SEPTTR", "value": 59, "unit": "%"}, {"measurement": "pest or weed control at 0.6 ppm", "setting": "[2]; [3]", "value": 21, "unit": "%"}, {"measurement": "pest or weed control at 1.8 ppm", "setting": "[2]; [4]", "value": 32, "unit": "%"}]}]}
